The values below come from patent US6689754B1, “Heterocyclic glycyl β-alanine derivatives” (G. D. Searle & Co., priority 1998, dated 2004).

The target of assay [1] is T1, Human vitronectin receptor (αvβ3) (Homo sapiens, UniProt P05106+P06756).
T1 construct: Human vitronectin receptor (αvβ3) was purified from human placenta; from tissue; host or cells: human placenta
The assay is described as follows: Vitronectin adhesion assay: solid phase receptor assay, competition with biotinylated vitronectin. It counts as binding. As to conditions: purified human vitronectin receptor; 1 nM biotinylated vitronectin. The protocol: Vitronectin Adhesion Assay
Human vitronectin receptor (αvβ3) was purified from human placenta as previously described [Pytela et al., Methods in Enzymology, 144:475-489 (1987)]. Human vitronectin was purified from fresh frozen plasma as previously described [Yatohgo et al., Cell Structure and Function, 13:281-292 (1988)]. Biotinylated human vitronectin was prepared by coupling NHS-biotin from Pierce Chemical Company (Rockford, Ill.) to purified vitronectin as previously described [Charo et al., J. Biol. Chem., 266(3):1415-1421 (1991)]. Assay buffer, OPD substrate tablets, and RIA grade BSA were obtained from Sigma (St. Louis, Mo.). Anti-biotin antibody was obtained from Calbiochem (La Jolla, Calif.). Linbro microtiter plates were obtained from Flow Labs (McLean, Va.). ADP reagent was obtained from Sigma (St. Louis, Mo.).
This assay was essentially the same as previously reported [Niiya et al., Blood, 70:475-483 (1987)]. The purified human vitronectin receptor (αvβ3) was diluted from stock solutions to 1.0 μg/mL in Tris-buffered saline containing 1.0 mM Ca^++, Mg^++, and Mn^++, pH 7.4 (TBS^+++). The diluted receptor was immediately transferred to Linbro microtiter plates at 100 μL/well (100 ng receptor/well). The plates were sealed and incubated overnight at 4° C. to allow the receptor to bind to the wells. All remaining steps were at room temperature. The assay plates were emptied and 200 μL of 1% RIA grade BSA in TBS^+++ (TBS^+++/BSA) were added to block exposed plastic surfaces. Following a 2 hour incubation, the assay plates were washed with TBS^+++ using a 96 well plate washer. Logarithmic serial dilution of the test compound and controls were made starting at a stock concentration of 2 mM and using 2 nM biotinylated vitronectin in TBS^+++/BSA as the diluent. This premixing of labeled ligand with test (or control) ligand, and subsequent transfer of 50 μL aliquots to the assay plate was carried out with a CETUS Propette robot; the final concentration of the labeled ligand was 1 nM and the highest concentration of test compound was 1.0×10^−4 M. The competition occurred for two hours after which all wells were washed with a plate washer as before. Affinity purified horseradish peroxidase labeled goat anti-biotin antibody was diluted 1:3000 in TBS^+++/BSA and 125 μL were added to each well. After 30 minutes, the plates were washed and incubated with OPD/H2O2 substrate in 100 mM/L Citrate buffer, pH 5.0. The plate was read with a microtiter plate reader at a wavelength of 450 nm and when the maximum-binding control wells reached an absorbance of about 1.0, the final A450 were recorded for analysis. The data were analyzed using a macro written for use with the EXCELJ spreadsheet program. The mean, standard deviation, and % CV were determined for duplicate concentrations. The mean A450 values were normalized to the mean of four maximum-binding controls (no competitor added)(B-MAX). The normalized values were subjected to a four parameter curve fit algorithm [Rodbard et al., Int.

The target of assay [2] is T2, Human fibrinogen receptor IIb/IIIa (Homo sapiens, UniProt P05106+P08514).
T2 construct: Human fibrinogen receptor ([…]) was purified from outdated platelets; from tissue; host or cells: outdated human platelets
Nature of the assay: Purified IIb/IIIa receptor assay: solid phase receptor assay, competition with biotinylated vitronectin. Format: binding. The following applies: 1 nM biotinylated vitronectin. From the text: Purified IIb/IIIa Receptor Assay
Human fibrinogen receptor ([…]) was purified from outdated platelets. (Pytela, R., Pierschbacher, M. D., Argraves, S., Suzuki, S., and Rouslahti, E. “Arginine-Glycine-Aspartic acid adhesion receptors”, Methods in Enzymology 144(1987):475-489.) Human vitronectin was purified from fresh frozen plasma as described in Yatohgo, T., Izumi, M., Kashiwagi, H., and Hayashi, M., “Novel purification of vitronectin from human plasma by heparin affinity chromatography,” Cell Structure and Function 13(1988):281-292. Biotinylated human vitronectin was prepared by coupling NHS-biotin from Pierce Chemical Company (Rockford, Ill.) to purified vitronectin as previously described. (Charo, I. F., Nannizzi, L., Phillips, D. R., Hsu, M. A., Scarborough, R. M., “Inhibition of fibrinogen binding to GP IIb/IIIa by a GP IIIa peptide”, J. Biol. Chem. 266(3)(1991): 1415-1421.) Assay buffer, OPD substrate tablets, and RIA grade BSA were obtained from Sigma (St. Louis, Mo.). Anti-biotin antibody was obtained from Calbiochem (La Jolla, Calif.). Linbro microtiter plates were obtained from Flow Labs (McLean, Vs.). ADP reagent was obtained from Sigma (St. Louis, Mo.).
This assay is essentially the same reported in Niiya, K., Hodson, E., Bader, R., Byers-Ward, V. Koziol, J. A., Plow, E. F. and Ruggeri, Z. M., “Increased surface expression of the membrane glycoprotein IIb/IIIa complex induced by platelet activation: Relationships to the binding of fibrinogen and platelet aggregation”, Blood 70(1987):475-483. The purified human fibrinogen receptor ([…]) was diluted from stock solutions to 1.0 μg/mL in Tris-buffered saline containing 1.0 mM Ca^++, Mg^++, and Mn^++, pH 7.4 (TBS^+++). The diluted receptor was immediately transferred to Linbro microtiter plates at 100 μL/well (100 ng receptor/well). The plates were sealed and incubated overnight at 4° C. to allow the receptor to bind to the wells. All remaining Steps were at room temperature. The assay plates were emptied and 200 μL of 1% RIA grade BSA in TBS^+++ (TBS^+++/BSA) were added to block exposed plastic surfaces. Following a 2 hour incubation, the assay plates were washed with TBS^+++ using a 96 well plate washer. Logarithmic serial dilution of the test compound and controls were made starting at a stock concentration of 2 mM and using 2 nM biotinylated vitronectin in TBS^+++/BSA as the diluent. This premixing of labeled ligand with test (or control) ligand, and subsequent transfer of 50 μL aliquots to the assay plate was carried out with a CETUS Propette robot; the final concentration of the labeled ligand was 1 nM and the highest concentration of test compound was 1.0×10^−4 M. The competition occurred for two hours after which all wells were washed with a plate washer as before. Affinity purified horseradish peroxidase labeled goat anti-biotin antibody was diluted 1:3000 in TBS^+++/BSA and 125 μL were added to each well. After 30 minutes, the plates were washed and incubated with […] substrate in 100 mM/L citrate buffer, pH 5.0. The plate was read with a microtiter plate reader at a wavelength of 450 nm and when the maximum-binding control wells reached an absorbance of about 1.0, the final A450 were recorded for analysis. The data were analyzed using a macro written for use with the EXCELJ spreadsheet program. The mean, standard deviation, and % CV were determined for duplicate concentrations. The mean A450 values were normalized to the mean of four maximum-binding controls (no competitor added)(B-MAX). The normalized values were subjected to a four parameter curve fit algorithm, [Robard et al., Int. Atomic Energy Agency.

Each structure is given as a SMILES string. Structures can show the parent of a compound that is named as a salt.

In the case of `Cn1cc(C(=O)NCC(=O)NC(CC(=O)O)c2cc(Cl)cc(Cl)c2O)cc(NC2=NCCN2)c1=O` (stereo not drawn) [Example 18, N-[[5-(4,5,-dihydro-1H-imidazol-2-yl)amino]-1,6-dihydro-1-methyl-6-oxo-3-pyridinyl]carbonyl]glycyl-3-(3,5-dichloro-2-hydroxyphenyl-β-alanine, (trifluoroacetate) salt], the values for the half-maximal inhibitory concentration (IC50) in assay [1] and in assay [2] were 0.43 nM and 798 nM, respectively.

As to `O=C(O)CC(NC(=O)CNC(=O)c1cncc(NC2=NCCN2)c1)c1cc(Cl)cc(Cl)c1O` (centres unmarked) [Example 3], the IC50 – broadly, the concentration that inhibits the measured activity by half – in assay [1] was determined as 0.41 nM; in assay [2] it was 298 nM.

Take `O=C(O)CC(NC(=O)CNC(=O)c1cncc(NC2=NCCN2)c1)c1cc(Cl)cc(Br)c1O` (centres unmarked) [Example 4]: the IC50 was 0.74 nM in assay [1] and 581 nM in assay [2].

`O=C(O)C[C@H](NC(=O)CNC(=O)c1cc(NC2=NCC(O)CN2)[nH]c(=O)c1)c1cc(Cl)cc(Br)c1O` (some centres unmarked) [Example 43]: the IC50 in assay [1] was found to be 6.5 nM; in assay [2], 7530 nM.

Turning to `COc1ncc(N=C2NCCN2)cc1C(=O)NCC(=O)NC(CC(=O)O)c1cc(Cl)cc(Cl)c1O` (stereo not drawn) [Example 22, N-[[(4,5,-dihydro-1H-imidazol-2-yl)amino]-2-methoxy-3-pyridinyl]carbonyl]glycyl-3-(3,5-dichloro-2-hydroxyphenyl)-β-alanine, (trifluoroacetate) salt], the 50% inhibitory concentration (IC50) in assay [1] turned out to be 6.96 nM; in assay [2], 1710 nM.

With `O=C(O)CC(NC(=O)CNC(=O)c1cc(NC2=NCCN2)cs1)c1cc(Cl)cc(Cl)c1O` (stereo not drawn) [Example 13, N-[[4-[(4,5-dihydro-1H-imidazol-2-yl)amino]-2-thienyl]carbonyl]glycyl-3-(3,5-dichloro-2-hydroxyphenyl)-β-alanine, trifluoroacetate salt], the IC50 turned out to be 9.32 nM in assay [1] and 780 nM in assay [2].

Regarding `O=C(O)C[C@@H](NC(=O)CNC(=O)c1c[nH]c(=O)c(NC2=NCC(O)CN2)c1)c1cc(Cl)cc(Cl)c1O` (some centres unmarked) [Example 41], the IC50 in assay [1] came out at 10.2 nM; in assay [2] it was 35400 nM.

Turning to `O=C(O)CC(NC(=O)CNC(=O)c1cncc(NC2=NCCCN2)c1)c1cc(Cl)cc(Cl)c1O` (centres unmarked) [Example 6], the IC50 in assay [1] was determined as 0.27 nM; in assay [2], 1260 nM.

As to `Cc1sc(C(=O)NCC(=O)N[C@@H](CC(=O)O)c2cc(Cl)cc(Cl)c2O)cc1NC1=NCCN1` [Example 15, (3S)-N-[[4-(4,5,-dihydro-1H-imidazol-2-yl)amino]-5-methyl-2-thienyl]carbonyl]glycyl-3-(3,5-dichloro-2-hydroxyphenyl)-β-alanine, trifluoroacetate salt], the values for the half-maximal inhibitory concentration (IC50) in assay [1] and in assay [2] were 25.4 nM and 1040 nM, respectively.

Regarding `N=C(N)Nc1cncc(C(=O)NCC(=O)NC(CC(=O)O)c2cc(Cl)cc(Br)c2O)c1` (centres unmarked) [Example 1], the IC50 stood at 1.58 nM in assay [1] and 313 nM in assay [2].

As for `COc1ncc(C(=O)NCC(=O)NC(CC(=O)O)c2cc(Cl)cc(Cl)c2O)cc1NC1=NCCN1` (stereo not drawn) [Example 17, N-[[5-(4,5,-dihydro-1H-imidazol-2-yl)amino]-6-methoxy-3-pyridinyl]carbonyl]glycyl]-3-(3,5-dichloro-2-hydroxyphenyl)-β-alanine, bis(trifluoroacetate) salt], the values for the IC50 in assay [1] and in assay [2] were 0.46 nM and 724 nM, respectively.

`O=C(O)CC(NC(=O)CNC(=O)c1cc(NC2=NCCN2)[nH]n1)c1cc(Cl)cc(Cl)c1O` (stereo not drawn) [Example 25, N-[[5-[(4,5-dihydro-1H-imidazol-2-yl)amino]-1H-pyrazol-3-yl]carbonyl]-glycyl-3-(3,5-dichloro-2-hydroxyphenyl)-β-alanine, (trifluoroacetate) salt]: the IC50 in assay [1] came to 1870 nM; in assay [2] it was 3910 nM.

Consider `COc1ncc(C(=O)NCC(=O)N[C@@H](CC(=O)O)c2cc(Cl)cc(Cl)c2O)cc1NC1=NCC(O)CN1` (some centres unmarked) [Example 27], for which the half-maximal inhibitory concentration (IC50) in assay [1] worked out at 0.26 nM; in assay [2] it was 482 nM.

Turning to `COc1cc(NC2=NCC(O)CN2)nc(C(=O)NCC(=O)N[C@@H](CC(=O)O)c2cc(Cl)cc(Br)c2O)c1` (some centres unmarked) [Example 30], the half-maximal inhibitory concentration (IC50) was 155 nM in assay [1] and 29.5 nM in assay [2].

`O=C(O)C[C@H](NC(=O)CNC(=O)c1c[nH]c(=O)c(NC2=NCC(O)CN2)c1)c1cc(Cl)cc(Cl)c1O` (stereo partly drawn) [Example 21, (3S)-N-[[1,6-dihydro-6-oxo-5-[(1,4,5,6-tetrahydro-5-hydroxy-2-pyrimidinyl)amino]-3-pyridinyl]carbonyl]glycyl-3-(3,5-dichloro-2-hydroxyphenyl)-β-alanine, trifluoroacetate salt]: the IC50 in assay [1] turned out to be 0.2 nM; in assay [2], 551 nM.

With `O=C(O)C[C@H](NC(=O)CNC(=O)c1c[nH]c(=O)c(NC2=NCC(O)CN2)c1)c1cc(Cl)cc(Br)c1O` (some centres unmarked) [Example 33], the IC50 in assay [1] was determined as 0.2 nM; in assay [2], 520 nM.

For the molecule `O=C(O)CC(NC(=O)CNC(=O)c1ccc(NC2=NCCN2)s1)c1cc(Cl)cc(Cl)c1O` (stereo not drawn) [Example 16, N-[[5-(4,5,-dihydro-1H-imidazol-2-yl)amino]-2-thienyl]carbonyl]glycyl]-3-(3,5-dichloro-2-hydroxyphenyl)-β-alanine, trifluoroacetate salt], the values for the IC50 in assay [1] and in assay [2] were 22000 nM and 6180 nM, respectively.

On to `Cn1cc(NC2=NCC(O)CN2)cc1C(=O)NCC(=O)N[C@@H](CC(=O)O)c1cc(Cl)cc(Cl)c1O` (some centres unmarked) [Example 38], for which the IC50 in assay [1] turned out to be 278 nM; in assay [2] it was 115 nM.

For `CC1(C)CN=C(Nc2cc(C(=O)NCC(=O)N[C@@H](CC(=O)O)c3cc(Cl)cc(Cl)c3O)c[nH]c2=O)NC1` [Example 47], the half-inhibitory concentration (IC50) was 0.99 nM in assay [1] and 6710 nM in assay [2].
